Data on one compound can be found in ChEMBL document CHEMBL5154845, “Dual-acting antitumor agents targeting the A2A adenosine receptor and histone deacetylases: Design and synthesis of 4-(furan-2-yl)-1H-pyrazolo[3,4-d]pyrimidin-6-amine derivatives” (Eur J Med Chem, 2022).

Active and inactive are the calls of the source.

For one data set, the target named is Adenosine receptor A2a (Homo sapiens, UniProt P29274). As to the kind of experiment: Displacement of [3H][…] from human A2AAR incubated for 60 mins by scintillation counter analysis. On the technique in general: Displacement assays read how much labelled ligand stays bound in the presence of the test substance.
Sequence of Adenosine receptor A2a (P29274 whole entry): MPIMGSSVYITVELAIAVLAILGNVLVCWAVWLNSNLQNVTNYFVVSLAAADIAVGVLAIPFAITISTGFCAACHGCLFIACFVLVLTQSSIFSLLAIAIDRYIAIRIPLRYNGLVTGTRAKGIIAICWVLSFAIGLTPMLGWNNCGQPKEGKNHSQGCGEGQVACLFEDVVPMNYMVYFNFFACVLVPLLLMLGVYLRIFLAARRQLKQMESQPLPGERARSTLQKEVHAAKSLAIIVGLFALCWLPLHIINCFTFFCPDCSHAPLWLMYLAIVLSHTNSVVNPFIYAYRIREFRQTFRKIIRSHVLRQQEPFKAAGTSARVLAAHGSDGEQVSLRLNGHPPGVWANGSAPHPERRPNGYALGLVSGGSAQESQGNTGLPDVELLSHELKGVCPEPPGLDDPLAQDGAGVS
The subject of a further data set is CT26. Put plainly: Antiproliferative activity against mouse CT26 cells after 72 hrs by CCK-8 assay. It is filed as functional. Background: Formazan colour is commonly taken as a measure of viable cells.
Data set [1] relates to MC38. Put plainly: Inhibition of HDAC in mouse MC38 cells assessed as increase in H3 acetylation at 0.1 to 5 uM measured by western blot analysis. It counts as cell-based. The settings on record: dose 0.1-5 µM. On the technique in general: Immunoblotting shows a protein as a band on a membrane.
Data set [2] relates to MC38. As to the kind of experiment: Inhibition of HDAC in mouse MC38 cells assessed as increase in H4 acetylation at 0.1 to 5 uM measured by western blot analysis. As to conditions: dose 0.1-5 µM. It is filed as cell-based.
Data set [3] is described as follows: Elimination rate constant in male ICR mouse at 20 mg/kg, po measured up to 24 hrs by LC-MS/MS analysis. As to conditions: in vivo. It is filed as ADME, organism-based.
A short description of data set [4]: Half-life in male ICR mouse at 20 mg/kg, po measured up to 24 hrs by LC-MS/MS analysis. It counts as ADME, organism-based. The settings on record: in vivo.
Data set [5] can be described thus: Cmax in male ICR mouse at 20 mg/kg, po measured up to 24 hrs by LC-MS/MS analysis. It counts as ADME, organism-based. On the set-up: time < 24 hrs, dose 20 mg/kg, route po. As to conditions: in vivo.
Data set [6] is described as follows: AUC (0 to t) in male ICR mouse at 20 mg/kg, po measured up to 24 hrs by LC-MS/MS analysis. It counts as ADME, organism-based. On the set-up: time < 24 hrs, dose 20 mg/kg, route po. As to conditions: in vivo.
Data set [7] in a line: Mean residence time in male ICR mouse at 20 mg/kg, po measured up to 24 hrs by LC-MS/MS analysis. It is filed as ADME, organism-based. As to conditions: in vivo.
Data set [8] is described as follows: Oral bioavailability in male ICR mouse at 20 mg/kg measured up to 24 hrs by LC-MS/MS analysis. As to conditions: in vivo. It counts as ADME, organism-based.
Data set [9] is described as follows: Elimination rate constant in male ICR mouse at 5 mg/kg, iv measured up to 24 hrs by LC-MS/MS analysis. It is filed as ADME, organism-based. As to conditions: in vivo.
Data set [10] in a line: Half-life in male ICR mouse at 5 mg/kg, iv measured up to 24 hrs by LC-MS/MS analysis. It is filed as ADME, organism-based. As to conditions: in vivo.
Data set [11] can be described thus: Cmax in male ICR mouse at 5 mg/kg, iv measured up to 24 hrs by LC-MS/MS analysis. It is filed as ADME, organism-based. On the set-up: dose 5 mg/kg, time < 24 hrs, route iv. As to conditions: in vivo.
Data set [12] in a line: Elimination rate constant in male ICR mouse at 20 mg/kg, ip measured up to 24 hrs by LC-MS/MS analysis. It counts as ADME, organism-based. As to conditions: in vivo.
Data set [13] in a line: Clearance in male ICR mouse at 20 mg/kg, ip measured up to 24 hrs by LC-MS/MS analysis. It counts as ADME, organism-based. As to conditions: in vivo.
The nature of data set [14]: Mean residence time in male ICR mouse at 20 mg/kg, ip measured up to 24 hrs by LC-MS/MS analysis. It counts as ADME, organism-based. As to conditions: in vivo.
The next data set concerns the target T1, Adenosine receptor A2b (Homo sapiens, UniProt P29275).
T1 sequence (P29275 whole entry): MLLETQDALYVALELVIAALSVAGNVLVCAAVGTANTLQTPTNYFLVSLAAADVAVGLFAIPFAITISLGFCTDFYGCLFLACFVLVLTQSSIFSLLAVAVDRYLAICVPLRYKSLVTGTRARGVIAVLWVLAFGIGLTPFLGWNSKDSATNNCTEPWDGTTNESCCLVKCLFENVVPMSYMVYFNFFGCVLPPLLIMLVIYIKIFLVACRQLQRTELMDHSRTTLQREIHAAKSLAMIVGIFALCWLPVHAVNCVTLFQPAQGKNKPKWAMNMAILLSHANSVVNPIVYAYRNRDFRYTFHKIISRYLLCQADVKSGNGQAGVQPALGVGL
Put plainly: Displacement of [3H]DPCPX from human A2BAR incubated for 60 mins by scintillation counter analysis.

In a further data set the target is T2, Adenosine receptor A3 (Homo sapiens, UniProt P0DMS8).
T2 sequence (P0DMS8 whole entry): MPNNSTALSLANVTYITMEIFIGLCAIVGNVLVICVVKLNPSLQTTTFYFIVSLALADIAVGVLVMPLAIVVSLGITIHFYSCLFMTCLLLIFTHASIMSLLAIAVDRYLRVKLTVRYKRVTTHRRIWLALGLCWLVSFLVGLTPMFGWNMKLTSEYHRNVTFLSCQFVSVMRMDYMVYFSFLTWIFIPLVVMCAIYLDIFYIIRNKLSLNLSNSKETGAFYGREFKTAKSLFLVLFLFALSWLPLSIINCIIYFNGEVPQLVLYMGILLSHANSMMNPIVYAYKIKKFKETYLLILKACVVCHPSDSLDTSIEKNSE
As to the kind of experiment: Displacement of [3H]HEMADO from human A3AR incubated for 60 mins by scintillation counter analysis.

The target in a further data set is Histone deacetylase 3 (Homo sapiens, UniProt O15379). Put plainly: Inhibition of HDAC3 (unknown origin) using trypsin and LGK(Ac)-AMC as substrates incubated for 1 hr and measured by fluorescence assay.
Sequence of Histone deacetylase 3 (O15379 whole entry): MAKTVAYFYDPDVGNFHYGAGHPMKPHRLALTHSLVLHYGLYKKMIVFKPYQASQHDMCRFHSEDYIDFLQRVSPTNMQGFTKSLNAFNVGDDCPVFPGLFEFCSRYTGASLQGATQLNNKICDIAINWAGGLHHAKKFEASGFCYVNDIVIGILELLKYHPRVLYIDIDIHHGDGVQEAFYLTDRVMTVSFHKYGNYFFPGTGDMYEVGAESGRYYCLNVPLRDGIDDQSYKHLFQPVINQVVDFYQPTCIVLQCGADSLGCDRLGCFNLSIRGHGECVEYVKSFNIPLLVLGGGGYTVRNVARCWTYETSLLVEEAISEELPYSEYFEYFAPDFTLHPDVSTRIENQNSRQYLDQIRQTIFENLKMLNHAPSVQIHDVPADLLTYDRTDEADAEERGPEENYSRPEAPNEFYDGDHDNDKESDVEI
Data set [15] relates to MC-38. Put plainly: Antitumor activity against mouse MC38 cells xenografted in C57 mouse assessed as tumor growth inhibition at 90 mg/kg, po administered twice a day. The settings on record: read-out: TGI. It is filed as functional.
Data set [16] concerns MC-38. Put plainly: Antitumor activity against mouse MC38 cells xenografted in C57 mouse assessed as tumor growth inhibition at 150 mg/kg, po administered once a day. It is filed as functional. As to conditions: read-out: TGI.
Data set [17] relates to MC-38. Put plainly: Antitumor activity against mouse MC38 cells xenografted in C57 mouse assessed as tumor growth inhibition at 60 mg/kg, ip administered twice a day. It counts as functional. As to conditions: read-out: TGI.

One may read the Ki as the dissociation constant of the complex between target and ligand, obtained from inhibition or displacement. Usually GI50 stands for the concentration giving 50% growth inhibition. A lower GI50 goes with greater sensitivity of the cells. Usually half-life stands for the time needed for the level to fall by half in the phase considered. Low values mean fast loss, high ones slow loss. Usually Cmax stands for the maximum level reached in the sampled fluid or tissue. Broadly, the AUC(0-t) is exposure summed from dosing to a finite time, without extrapolation to infinity. A low value points to low exposure. In general, MRT refers to a mean duration of stay, worked out from the concentration-time curve. By bioavailability is commonly meant the share of a dose that reaches the circulation, judged against a reference dose that is usually intravenous. Read a low bioavailability as little systemic uptake. The term CL/F denotes the apparent clearance, not corrected for the fraction that reaches the circulation. Usually IC50 stands for the point on the concentration scale where inhibition reaches its midpoint. A high value points to weaker potency. Consider `Nc1nc(-c2ccco2)c2cnn(CCc3ccc(C(=O)Nc4ccccc4N)cc3)c2n1`, for which the values for the Ki on Adenosine receptor A2a, at Adenosine receptor A2b and at Adenosine receptor A3 were 163 nM, over 10000 nM and over 10000 nM, respectively. The compound further yielded a concentration for 50% growth inhibition (GI50) with CT26 of 380 nM. Moreover, the inhibition result with MC38 [1] and in the data set on MC38 [2] was “Active” in each case. Besides, the k el at 24 h in [3] is 0.000108 s⁻¹; in [9] it was 0.000506 s⁻¹; in data set [12], 0.000234 s⁻¹. The half-life is 2.24 h in data set [4] and 0.389 h in [10]. Moreover, the figures for the Cmax in [5] and in data set [11] were 3420 ng/mL and 4700 ng/mL, respectively. Further, the AUC(0-t) at 24 h in data set [6] is 3600 ng·h/mL. For the same compound, the mean residence time (MRT) is 1.29 h in data set [7] and 0.95 h in [14]. This compound displayed a bioavailability in data set [8] of 43%. Further, the CL/F in data set [13] was found to be 33.5 mL/min/kg. On Histone deacetylase 3, this compound displayed a concentration for half-maximal inhibition (IC50) of 444 nM. For the same compound, the inhibition in vivo at 90 mg/kg with MC-38 [15] was 44%. The inhibition in vivo at 150 mg/kg with MC-38 [16] came to 26%. In addition, the inhibition in vivo at 60 mg/kg in the data set with MC-38 [17] stood at 85%.
